Data published in ChEMBL document CHEMBL5625222, “Design, synthesis, and biological evaluation of 1,6-naphthyridine-2-one derivatives as novel FGFR4 inhibitors for the treatment of colorectal cancer” (Eur J Med Chem, 2023).
The source made the active and inactive calls. The calls are words filed in the database; no cut-off is given here.

What was measured:
[1] = Antiproliferative activity against human Intestinal epithelial cell assessed as inhibition of cell growth incubated for 48 hrs by MTT assay; format: toxicity, cell-based; details: human intestinal epithelial cells
[2] = test system: HCT-116; assay: cells; details: Homo sapiens, HCT-116, 48 h
Description: Antiproliferative activity against human HCT-116 cells assessed as inhibition of cell growth incubated for 48 hrs by MTT assay

[3] = test system: SW480; assay: cells; details: Homo sapiens, SW480, 48 h
Description: Antiproliferative activity against human SW480 cells assessed as inhibition of cell growth incubated for 48 hrs by MTT assay

[4] = test system: RKO; assay: cells; details: Homo sapiens, 48 h
Description: Antiproliferative activity against human RKO cells assessed as inhibition of cell growth incubated for 48 hrs by MTT assay

[5] = test system: BaF3; assay: Antiproliferative activity against mouse BaF3 transfected with FGFR4 assessed as inhibition of cell growth incubated for 72 hrs by CCK-8 assay; format: toxicity, cell-based; details: BaF3, 72 h
[6] = test system: HCT-116; assay: Antitumor activity against human HCT-116 cells xenografted in BALB/c mouse assessed as tumor growth inhibition at 10 mg/kg,po administrated for 2 weeks relative to control; format: functional; details: HCT-116, 336 h, read-out: TGI
[7] = test system: HCT-116; assay: Antitumor activity against human HCT-116 cells xenografted in BALB/c mouse assessed as change in cell morphology at 10 mg/kg,po administrated for 2 weeks by hematoxylin and eosin staining based analysis; format: functional, organism-based
[8] = test system: HCT-116; assay: Antitumor activity against human HCT-116 cells xenografted in BALB/c mouse assessed as chromatin condensation at 10 mg/kg,po administrated for 2 weeks by hematoxylin and eosin staining based analysis; format: functional, organism-based
[9] = Toxicity in BALB/c mouse xenografted with human HCT-116 cells assessed as histopathological change in kidney at 10 mg/kg,po administrated for 2 weeks by hematoxylin and eosin staining based analysis; format: organism-based; details: in vivo, 336 h
[10] = Toxicity in BALB/c mouse xenografted with human HCT-116 cells assessed as increase in serum AST level at 10 mg/kg,po administrated for 2 weeks; format: organism-based; details: in vivo, 336 h

Compound	IC50 at 48 h [1] [µM]	IC50 [2] [µM]	IC50 [3] [µM]	IC50 [4] [µM]	IC50 [5] [nM]	inhibition in vivo at 10 mg/kg [6] [%]	Activity [7]	Activity [8]	Activity [9]	Activity [10]
C=CC(=O)Nc1cccc(C)c1Nc1cc2c(cn1)cc(-c1c(Cl)c(OC)cc(OC)c1Cl)c(=O)n2CCCO	24	7.21	12.8	9.32	–	–	–	–	–	–
C=CC(=O)Nc1cccc(C)c1Nc1ncc2cc(-c3c(Cl)c(OC)cc(OC)c3Cl)ccc2n1	18.4	8.89	12.7	19.7	5.12	–	–	–	–	–
CNC(=O)c1c(C)oc2cc(Oc3ncnc4cc(OC)c(OC)cc34)ccc12 [FRUQUINTINIB]	–	–	–	–	–	63.7	Active	Active	Toxic	Toxic
C=CC(=O)NCCCn1c(=O)c(-c2cc(OC)cc(OC)c2)cc2cnc(Nc3c(C)cccc3N3CCN(C)CC3)cc21	21.3	10.8	12.7	11.5	–	–	–	–	–	–
COc1cc(OC)c(Cl)c(-c2cc3cnc(Nc4c(C)cccc4N4CCCCC4)cc3n(CCCN3CCCCC3)c2=O)c1Cl	25.1	9.37	10.3	11.2	–	–	–	–	–	–
COc1cc(OC)cc(-c2cc3cnc(Nc4c(C)cccc4N4CCOCC4)cc3n(CCCO)c2=O)c1	19.5	11.9	22.8	9.25	–	–	–	–	–	–
